Results: paper doi:10.1101/2022.06.14.496144v1, “Crystal structure and functional peculiarities of a primordial Orange Carotenoid Protein (OCPX)” (biorxiv, 2022)
Residue numbers refer to the chain shown, from its start.

What was measured:
Format in all cases: binding
[1] = target: T1, ΔNTE-GlOCPX (Gloeobacter kilaueensis, UniProt U5QHX0); test: co-purified holoprotein, absorbance, photocycle; conditions: pH 7.6; ECH-producing E. coli
T1 construct: gene GKIL_2275; N-terminal extension M1-P17 removed, E. coli C41(DE3) making ECH, His-3C tag
T1 sequence (U5QHX0 18-322): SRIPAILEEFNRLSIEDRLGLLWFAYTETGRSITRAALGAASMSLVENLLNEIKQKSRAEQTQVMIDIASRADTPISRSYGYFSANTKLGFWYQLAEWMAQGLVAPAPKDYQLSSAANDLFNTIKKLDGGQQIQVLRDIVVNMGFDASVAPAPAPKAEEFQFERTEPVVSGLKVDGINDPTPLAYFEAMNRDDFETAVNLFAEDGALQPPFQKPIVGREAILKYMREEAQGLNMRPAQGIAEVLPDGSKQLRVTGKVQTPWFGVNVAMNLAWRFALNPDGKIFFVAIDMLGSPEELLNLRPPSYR

[2] = target: T2, GlOCPX (Gloeobacter kilaueensis, UniProt U5QHX0); test: co-purified holoprotein, SEC with absorbance spectra, photocycle; conditions: pH 7.6; ECH-producing E. coli
T2 construct: gene GKIL_2275; full length M1-R322, codon-optimised, E. coli C41(DE3) making ECH or CAN, His tag cut by 3C leaving N-terminal GPH
T2 sequence (U5QHX0 1-322): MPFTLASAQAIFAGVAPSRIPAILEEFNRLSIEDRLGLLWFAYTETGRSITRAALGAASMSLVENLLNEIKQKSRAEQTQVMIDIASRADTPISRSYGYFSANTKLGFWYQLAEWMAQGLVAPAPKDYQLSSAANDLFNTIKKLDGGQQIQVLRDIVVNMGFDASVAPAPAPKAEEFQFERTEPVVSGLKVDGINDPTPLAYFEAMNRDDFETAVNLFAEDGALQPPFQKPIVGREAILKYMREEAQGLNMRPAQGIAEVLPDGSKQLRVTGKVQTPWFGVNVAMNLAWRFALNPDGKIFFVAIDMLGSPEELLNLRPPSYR

[3] = target: T3, GlOCPX (Gloeobacter kilaueensis, UniProt U5QHX0, E25A); test: X-ray crystal structure, […] Å; conditions: between NTD and CTD; pH 6.5 crystals
T3 construct: gene GKIL_2275; full length M1-R322, codon-optimised, E. coli C41(DE3) making ECH or CAN, His tag cut by 3C leaving N-terminal GPH
T3 sequence (U5QHX0 1-322 E25A): T2 sequence (U5QHX0 1-322) with E25A

## CC1=C(/C=C/C(C)=C/C=C/C(C)=C/C=C/C=C(C)/C=C/C=C(C)/C=C/C2=C(C)C(=O)CCC2(C)C)C(C)(C)CCC1 [ECH, echinenone]
[1]
  co-purified holoprotein, absorbance, photocycle: All samples uniformly contained ECH as a cofactor
[2]
  co-purified holoprotein, SEC with absorbance spectra, photocycle: produced GlOCPX in Escherichia coli strains synthesizing ketocarotenoids canthaxanthin (CAN) or echinenone (ECH)
[3]
  X-ray crystal structure, 1.7 Å: A well-defined density revealed that the GlOCPX-embedded carotenoid is echinenone (ECH)
